Experimental data reported in PubChem BioAssay (NCI).
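96-well plates; 48 h exposure; 5 concentrations. Endpoints by linear interpolation between flanking doses. Not reached: highest tested concentration assigned. Here, GI50 denotes the concentration required for 50% inhibition of growth. TGI marks complete inhibition of growth.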

How the values were obtained:
Assay in all cases: NCI-60 cell line screen, 48 h
BT-549 breast = system: BT-549 breast
LOX IMVI melanoma = system: LOX IMVI melanoma
MALME-3M melanoma = system: MALME-3M melanoma
K-562 leukemia = system: K-562 leukemia
KM12 colon = system: KM12 colon
SR leukemia = system: SR leukemia
SK-MEL-28 melanoma = system: SK-MEL-28 melanoma
EKVX NSCLC = system: EKVX NSCLC
NCI/ADR-RES ovarian = system: NCI/ADR-RES ovarian
SK-MEL-5 melanoma = system: SK-MEL-5 melanoma
COLO 205 colon = system: COLO 205 colon
MDA-MB-231 breast = system: MDA-MB-231 breast
U251 CNS = system: U251 CNS
SF-295 CNS = system: SF-295 CNS
PC-3 prostate = system: PC-3 prostate
T-47D breast = system: T-47D breast
DU-145 prostate = system: DU-145 prostate
TK-10 renal = system: TK-10 renal
IGROV1 ovarian = system: IGROV1 ovarian
SNB-75 CNS = system: SNB-75 CNS
HS 578T breast = system: HS 578T breast
ACHN renal = system: ACHN renal
NCI-H460 lung = system: NCI-H460 lung
MCF7 breast = system: MCF7 breast
SW-620 colon = system: SW-620 colon
A549 NSCLC = system: A549 NSCLC
SNB-19 CNS = system: SNB-19 CNS
HCT-116 colon = system: HCT-116 colon
SF-268 CNS = system: SF-268 CNS
SN12C renal = system: SN12C renal
NCI-H226 lung = system: NCI-H226 lung
A498 renal = system: A498 renal
UACC-62 melanoma = system: UACC-62 melanoma
MDA-MB-435 = system: MDA-MB-435
OVCAR-4 ovarian = system: OVCAR-4 ovarian
HCC-2998 colon = system: HCC-2998 colon
NCI-H23 lung = system: NCI-H23 lung
UACC-257 melanoma = system: UACC-257 melanoma
NCI-H522 lung = system: NCI-H522 lung
SF-539 CNS = system: SF-539 CNS
MOLT-4 leukemia = system: MOLT-4 leukemia
HOP-92 NSCLC = system: HOP-92 NSCLC
SK-OV-3 ovarian = system: SK-OV-3 ovarian
CAKI-1 renal = system: CAKI-1 renal
OVCAR-5 ovarian = system: OVCAR-5 ovarian
OVCAR-3 ovarian = system: OVCAR-3 ovarian
HOP-62 NSCLC = system: HOP-62 NSCLC
CCRF-CEM leukemia = system: CCRF-CEM leukemia
OVCAR-8 ovarian = system: OVCAR-8 ovarian
M14 melanoma = system: M14 melanoma
RPMI-8226 leukemia = system: RPMI-8226 leukemia
HCT-15 colon = system: HCT-15 colon
HT29 colon = system: HT29 colon
SK-MEL-2 melanoma = system: SK-MEL-2 melanoma
786-0 renal = system: 786-0 renal
UO-31 renal = system: UO-31 renal
HL-60(TB) leukemia = system: HL-60(TB) leukemia

## O=C(/C=C/c1cccc(B(O)O)c1)c1cccc(B(O)O)c1
BT-549 breast
  GI50: 1.06 µM
  TGI: 2.37 µM
LOX IMVI melanoma
  GI50: 0.76 µM
  TGI: 2.03 µM
MALME-3M melanoma
  GI50: 2.26 µM
  TGI: 6.01 µM
K-562 leukemia
  GI50: 2.13 µM
  TGI: 9 µM
KM12 colon
  GI50: 1.37 µM
  TGI: 2.79 µM
SR leukemia
  GI50: 0.314 µM
  TGI: 1.65 µM
SK-MEL-28 melanoma
  GI50: 1.72 µM
  TGI: 3.46 µM
EKVX NSCLC
  GI50: 6.38 µM
  TGI: 23.1 µM
NCI/ADR-RES ovarian
  GI50: 1.99 µM
  TGI: 5.47 µM
SK-MEL-5 melanoma
  GI50: 1.85 µM
  TGI: 3.83 µM
COLO 205 colon
  GI50: 1.76 µM
  TGI: 3.45 µM
MDA-MB-231 breast
  GI50: 1.58 µM
  TGI: 3.17 µM
U251 CNS
  GI50: 0.406 µM
  TGI: 1.52 µM
SF-295 CNS
  GI50: 3.9 µM
  TGI: 15.6 µM
PC-3 prostate
  GI50: 2.53 µM
  TGI: 11.2 µM
T-47D breast
  GI50: 2.31 µM
  TGI: 9.58 µM
DU-145 prostate
  GI50: 1.83 µM
  TGI: 3.79 µM
TK-10 renal
  GI50: 2.57 µM
  TGI: 6.47 µM
IGROV1 ovarian
  GI50: 2.52 µM
  TGI: 6.65 µM
SNB-75 CNS
  GI50: 3.61 µM
  TGI: 16.3 µM
HS 578T breast
  GI50: 3.89 µM
  TGI: 54.8 µM
ACHN renal
  GI50: 2.14 µM
  TGI: 4.33 µM
NCI-H460 lung
  GI50: 1.99 µM
  TGI: 4.53 µM
MCF7 breast
  GI50: 0.742 µM
  TGI: 7.58 µM
SW-620 colon
  GI50: 0.765 µM
  TGI: 2.31 µM
A549 NSCLC
  GI50: 2.12 µM
  TGI: 5.81 µM
SNB-19 CNS
  GI50: 2.13 µM
  TGI: 10.4 µM
HCT-116 colon
  GI50: 0.376 µM
  TGI: 1.57 µM
SF-268 CNS
  GI50: 1.8 µM
  TGI: 5.56 µM
SN12C renal
  GI50: 1.7 µM
  TGI: 3.61 µM
NCI-H226 lung
  GI50: 1.91 µM
  TGI: 4.14 µM
A498 renal
  GI50: 1.52 µM
  TGI: 3.5 µM
UACC-62 melanoma
  GI50: 1.66 µM
  TGI: 4.31 µM
MDA-MB-435
  GI50: 1.9 µM
  TGI: 4.88 µM
OVCAR-4 ovarian
  GI50: 3.27 µM
  TGI: 22.2 µM
HCC-2998 colon
  GI50: 1.8 µM
  TGI: 3.2 µM
NCI-H23 lung
  GI50: 1.81 µM
  TGI: 4.44 µM
UACC-257 melanoma
  GI50: 1.38 µM
  TGI: 3.31 µM
NCI-H522 lung
  GI50: 1.51 µM
  TGI: 3.02 µM
SF-539 CNS
  GI50: 1.84 µM
  TGI: 3.73 µM
MOLT-4 leukemia
  GI50: 2.1 µM
  TGI: 5.96 µM
HOP-92 NSCLC
  GI50: 1.53 µM
  TGI: 3.59 µM
SK-OV-3 ovarian
  GI50: 3.16 µM
  TGI: 11.6 µM
CAKI-1 renal
  GI50: 2.85 µM
  TGI: 12.6 µM
OVCAR-5 ovarian
  GI50: 2.17 µM
  TGI: 4.87 µM
OVCAR-3 ovarian
  GI50: 0.828 µM
  TGI: 2.38 µM
HOP-62 NSCLC
  GI50: 1.59 µM
  TGI: 3.26 µM
CCRF-CEM leukemia
  GI50: 0.445 µM
  TGI: 2.67 µM
OVCAR-8 ovarian
  GI50: 2.19 µM
  TGI: 7.23 µM
M14 melanoma
  GI50: 1.51 µM
  TGI: 3.33 µM
RPMI-8226 leukemia
  GI50: 2.25 µM
  TGI: 5.68 µM
HCT-15 colon
  GI50: 1.55 µM
  TGI: 4.3 µM
HT29 colon
  GI50: 1.68 µM
  TGI: 3.17 µM
SK-MEL-2 melanoma
  GI50: 2.26 µM
  TGI: 5.2 µM
786-0 renal
  GI50: 1.75 µM
  TGI: 3.71 µM
UO-31 renal
  GI50: 1.71 µM
  TGI: 3.36 µM
HL-60(TB) leukemia
  GI50: 2.17 µM
  TGI: 6.33 µM

## CO[C@]12C[C@H](CNC(=O)c3cc(Br)c(Br)[nH]3)O[C@H]1NC(=O)N2
BT-549 breast
  TGI: > 100 µM
LOX IMVI melanoma
  TGI: > 100 µM
MALME-3M melanoma
  TGI: > 100 µM
K-562 leukemia
  TGI: > 100 µM
KM12 colon
  TGI: > 100 µM
SR leukemia
  TGI: > 100 µM
SK-MEL-28 melanoma
  TGI: > 100 µM
EKVX NSCLC
  TGI: > 100 µM
NCI/ADR-RES ovarian
  TGI: > 100 µM
SK-MEL-5 melanoma
  TGI: > 100 µM
COLO 205 colon
  TGI: > 100 µM
MDA-MB-231 breast
  TGI: > 100 µM
U251 CNS
  TGI: > 100 µM
SF-295 CNS
  TGI: > 100 µM
PC-3 prostate
  TGI: > 100 µM
T-47D breast
  TGI: > 100 µM
DU-145 prostate
  TGI: > 100 µM
TK-10 renal
  TGI: > 100 µM
IGROV1 ovarian
  TGI: > 100 µM
SNB-75 CNS
  TGI: > 100 µM
HS 578T breast
  TGI: > 100 µM
ACHN renal
  TGI: > 100 µM
NCI-H460 lung
  TGI: > 100 µM
MCF7 breast
  TGI: > 100 µM
SW-620 colon
  TGI: > 100 µM
A549 NSCLC
  TGI: > 100 µM
SNB-19 CNS
  TGI: > 100 µM
HCT-116 colon
  TGI: > 100 µM
SF-268 CNS
  TGI: > 100 µM
SN12C renal
  TGI: > 100 µM
NCI-H226 lung
  TGI: > 100 µM
A498 renal
  TGI: > 100 µM
UACC-62 melanoma
  TGI: > 100 µM
MDA-MB-435
  TGI: > 100 µM
OVCAR-4 ovarian
  TGI: > 100 µM
HCC-2998 colon
  TGI: > 100 µM
NCI-H23 lung
  TGI: > 100 µM
UACC-257 melanoma
  TGI: > 100 µM
NCI-H522 lung
  TGI: > 100 µM
SF-539 CNS
  TGI: > 100 µM
MOLT-4 leukemia
  TGI: > 100 µM
HOP-92 NSCLC
  TGI: > 100 µM
SK-OV-3 ovarian
  TGI: > 100 µM
CAKI-1 renal
  TGI: > 100 µM
OVCAR-5 ovarian
  TGI: > 100 µM
OVCAR-3 ovarian
  TGI: > 100 µM
HOP-62 NSCLC
  TGI: > 100 µM
CCRF-CEM leukemia
  TGI: > 100 µM
OVCAR-8 ovarian
  TGI: > 100 µM
M14 melanoma
  TGI: > 100 µM
RPMI-8226 leukemia
  TGI: > 100 µM
HCT-15 colon
  TGI: > 100 µM
HT29 colon
  TGI: > 100 µM
SK-MEL-2 melanoma
  TGI: > 100 µM
786-0 renal
  TGI: > 100 µM
UO-31 renal
  TGI: > 100 µM
HL-60(TB) leukemia
  TGI: > 100 µM
